Like-named read-outs stand apart in the source and are kept apart here.

Series [1] can be described thus: Subacute toxicity, daily for 14 days. Format: in vivo, NOD scid gamma female mice. The following applies: 4 and 6 mg/kg ip daily for 14 days. The protocol: For subacute toxicity study, three groups of three NSG female mice each were used. Using the formula from NCI, the low dose and high dose were calculated from the MTD value (17.5 mg/kg estimated above) and these were 4 and 6 mg/kg respectively. Mice in the first two groups were administered intraperitoneally with Cu(II) complex at doses of 4 and 6 mg/kg daily respectively for 14 days, while those in the control group received an equal volume of normal saline. […] No mortality was observed during the course of the study. All mice remained healthy with no obvious differences being noted in the general behavior, physical activities or clinical conditions with respect to the control group. The accumulative intraperitoneal doses administered in these groups were 56.0 and 84.0 mg/kg of the Cu(II) complex, respectively.
Mice were divided into three groups of 3 mice each. The Cu(II) complex was administered intraperitoneally at the doses of 4 and 6 mg/kg daily for 14 days, while the control group received an equal volume of normal saline. […] Signs of toxicity, mortality, body weight, food consumption and water intake were monitored and recorded daily. Adverse effects such as rapid or consistent body weight loss reaching 20%, blood stained discharges, labored breathing, paralysis, anemia, and other signs and symptoms mentioned in the acute toxicity study, was used as criteria for termination. At the end of the experiment, the mice were sacrificed and the major organs including the heart, lung, liver, kidney and spleen were examined for gross and histopathological changes.

Series [2] has as its system NCI60 human cancer cell line panel.
The target of the next series is CYP 2C19 (Homo sapiens, UniProt P33261). The experiment in a line: CYP450 inhibition assay, pooled human liver microsomes. The following applies: read-out: IC50 CYP 2C19; probe S-mephenytoin. The protocol: (§1) In the CYP inhibition assay, human liver microsomes were incubated with the Cu(II) complex or reference standard. The inhibitory effects of these compounds were investigated against the major CYP isoforms namely 1A2, 2C9, 2C19, 2D6, 2B6, 2C8 and 3A4 with their respective isoform probe substrates in one reaction mixture (pooled probe substrate format using LC-MS/MS).
CYP 2C19, sequence (P33261 whole entry, canonical isoform): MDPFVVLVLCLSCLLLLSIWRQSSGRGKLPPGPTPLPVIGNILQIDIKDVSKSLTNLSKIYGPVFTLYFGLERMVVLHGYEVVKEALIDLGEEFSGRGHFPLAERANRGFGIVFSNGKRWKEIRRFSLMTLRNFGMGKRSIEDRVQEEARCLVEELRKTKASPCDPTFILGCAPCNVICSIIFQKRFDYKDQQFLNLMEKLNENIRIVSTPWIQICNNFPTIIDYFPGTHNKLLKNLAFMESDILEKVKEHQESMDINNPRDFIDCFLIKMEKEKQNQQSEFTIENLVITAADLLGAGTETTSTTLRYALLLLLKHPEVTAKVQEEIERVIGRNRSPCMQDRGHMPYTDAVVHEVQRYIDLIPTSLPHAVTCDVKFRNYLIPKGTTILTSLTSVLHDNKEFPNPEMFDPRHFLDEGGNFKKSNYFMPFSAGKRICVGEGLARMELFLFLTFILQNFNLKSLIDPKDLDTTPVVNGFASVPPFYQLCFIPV
(§2) Pooled human liver microsomes (Sekisui Xeno Tech, LLC., Kansas City, KS, USA) were incubated with different concentrations of Cu(II) complex or reference standards in buffer containing 0.1% DMSO for 10 min at 37°C and the residual enzyme activity was measured using pooled probe substrates method by pooled LC-MS/MS. Briefly, incubation mixtures were prepared in a total volume of 200 μL with final component concentrations as follows: 0.1 M potassium phosphate buffer (pH 7.4), 1.5 mM NADPH, and 0.25 mg/ml HLM. […] After 20 min of incubation, the reactions were terminated by addition of 200 μL ice-cold acetonitrile (Rankem, Avantor Performance Materials India Limited, Andhra Pradesh, India) containing telmisartan and carbamazepine as internal standards (all probe substrates and standards were from Sigma Aldrich). Each reaction mixture was centrifuged at 3,500 rpm for 5 min and the supernatant was subjected to LC-MS/MS analysis. The percent inhibition was calculated using the following equation: %Inhibition=100‑[(activityintestwells/activityinbasalcontrolwells)×100]

Another series has as its target T1, CYP 2C8 (Homo sapiens, UniProt P10632).
T1 sequence (P10632 1-490): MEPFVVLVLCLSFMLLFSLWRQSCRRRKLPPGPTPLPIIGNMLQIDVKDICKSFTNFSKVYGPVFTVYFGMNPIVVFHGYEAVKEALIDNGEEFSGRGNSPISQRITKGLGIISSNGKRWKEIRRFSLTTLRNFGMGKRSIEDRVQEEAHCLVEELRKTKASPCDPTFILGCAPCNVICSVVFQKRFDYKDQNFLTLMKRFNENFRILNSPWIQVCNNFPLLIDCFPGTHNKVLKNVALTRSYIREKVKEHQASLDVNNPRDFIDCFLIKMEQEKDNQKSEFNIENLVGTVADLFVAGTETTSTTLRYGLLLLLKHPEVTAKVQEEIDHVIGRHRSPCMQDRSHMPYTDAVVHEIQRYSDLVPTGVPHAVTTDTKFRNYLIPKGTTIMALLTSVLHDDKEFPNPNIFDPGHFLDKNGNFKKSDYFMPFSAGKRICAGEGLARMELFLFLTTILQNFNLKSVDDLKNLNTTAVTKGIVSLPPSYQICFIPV
The description is as above. To be noted: read-out: IC50 CYP 2C8; probe amodiaquine. The protocol:
as §1, §2

For another series, the target named is T2, CYP 2B6 (Homo sapiens, UniProt P20813).
T2 sequence (P20813 1-491): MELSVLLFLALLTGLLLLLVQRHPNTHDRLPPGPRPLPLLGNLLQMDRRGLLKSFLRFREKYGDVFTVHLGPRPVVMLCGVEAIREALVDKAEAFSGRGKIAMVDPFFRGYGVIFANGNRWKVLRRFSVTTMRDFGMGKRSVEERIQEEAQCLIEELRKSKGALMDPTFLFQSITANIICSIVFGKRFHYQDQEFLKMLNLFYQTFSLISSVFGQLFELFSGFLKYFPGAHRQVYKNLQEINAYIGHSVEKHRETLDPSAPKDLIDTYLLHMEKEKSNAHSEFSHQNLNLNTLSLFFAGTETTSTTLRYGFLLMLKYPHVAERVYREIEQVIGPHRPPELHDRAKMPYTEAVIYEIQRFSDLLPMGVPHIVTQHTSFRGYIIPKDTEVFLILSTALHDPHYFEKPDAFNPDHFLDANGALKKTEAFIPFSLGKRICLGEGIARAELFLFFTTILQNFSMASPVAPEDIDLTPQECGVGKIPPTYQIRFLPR
The series is described as above. The following applies: read-out: IC50 CYP 2B6; probe bupropion. How it is done: as §1, §2

A further series has as its system rat primary hepatocytes. The experiment in a line: Cytotoxicity in rat primary hepatocytes (resazurin). To be noted: 72 h.
Series [3] has as its system CYP isoforms 1A2, 2C9, 2C19, 2D6, 2B6, 2C8 and 3A4. The experiment in a line: CYP450 inhibition assay, summary over all tested isoforms. To be noted: pooled probe substrates; read-out: IC50 values against all tested isoforms. It is filed as in vitro ADME, human. The protocol:
as §1
as §2, with “Each reaction mixture was centrifuged at 3,500 rpm for 5 min and the supernatant was subjected to LC-MS/MS analysis.” left out

The GI50 is the concentration that inhibits growth by half. Consider `CC(C)(N)C(=O)[O-].O.O=[N+]([O-])[O-].[Cu+2].c1cnc2c(c1)ccc1cccnc12` [Cu(II) complex, [Cu(phen)(C-dmg)(H2O)]NO3], for which the “Histopathological examination, all organs” value in series [1] is given as “no significant morphological changes”. Besides, the body weight entry in series [1] was “no significant reduction of body weight”. Further, in series [1] (14 days further observation), the Mortality result was “No mortality”. Further, the “weight of vital organs” value in series [1] (day 28) is “not significantly affected”. In addition, in series [1] (disappeared during the 14-day observation), the site of injections result is “some inflammation and induration”. The CC50 in series [2] was greater than 100 µM; in series [2] (read-out: LC50, all renal cell lines), 1 to 10 µM; in series [2] (read-out: LC50, leukemia panel (CCRF-CEM, HL-60(TB), K-562, MOLT-2, RPMI-8226, SR)), greater than 100 µM; in series [2] (read-out: mean LC50, NCI60 panel, 48 h) it was 9.12 µM. Moreover, the “cytotoxicity compared with cisplatin (mean LC50)” value in series [2] (NCI60 panel) was “fivefold more cytotoxic”. In series [2] (read-out: mean GI50, NCI60 panel, 48 h), the GI50 came out at 1.51 µM. Also, the IC50 on CYP 2C19 is 10.3 µM; at CYP 2C8, 10.3 µM; at CYP 2B6, 7.59 µM; with rat primary hepatocytes (read-out: IC50 (cytotoxic concentration that kills 50% of the cells), resazurin assay), 4.7 µM; in series [3], 5 to 10 µM. The “concentrations at which cytotoxicity is exhibited” value in the series on rat primary hepatocytes is on record as “over 3 μM”.

These data come from article PMC5766233, “Ternary copper(II) complex: NCI60 screening, toxicity studies, and evaluation of efficacy in xenograft models of nasopharyngeal carcinoma” (PLoS ONE, 2018).
